Laboratory results: patent US20040086942A1, “Ige receptor antagonists” (priority 2003, published 2004)
pIC50: −log10 of the molar value. Where a SMILES comes first, the peptide text is derived from it. Bridges are numbered along the chain shown (N, C = ends). [ ]: non-standard residue; d: D form. 2Nal = N[C@@H](Cc1ccc2ccccc2c1)C(=O)O; Pip = O=C(O)[C@@H]1CCCCN1; NMeA = CN[C@@H](C)C(=O)O; Sar = CNCC(=O)O

How the values were obtained:
[1] = 2D NMR structural score versus reference peptide; type: physicochemical; set-up: key to Struct. Score: +++ indicates the peptide is structured similarly to IGE063 (SEQ ID NO:49); + indicates the peptide is structured similarly to IGE063 (SEQ ID NO:49), but is less stable; −/+ indicates the peptide has some elements of stable structure, but the conformation differs from the reference structure (e.g., a different turn type is evident); − indicates the peptide is predominantly unstructured in aqueous solution; conditions: reference IGE063
Method: Peptides were evaluated by 2D NMR spectroscopy to assess the effect of substitutions on the three-dimensional structure of the peptide analog. All peptides with a structural score indicated in Table 5 were analyzed by 2D NMR spectroscopy; backbone ^1H resonances were assigned and ^3JHN-Hα coupling constants were measured and compared to the reference peptide (IGE063, SEQ ID NO:49; see Example 5). Peptides are defined to be of similar structure to the reference peptide provided chemical shifts, coupling constants, and NOEs are consistent with that structure.
A structural score was assigned to peptides analyzed by 2D NMR spectroscopy. For each of these peptides, backbone ^1H resonances have been assigned, and the ^3JHN-Ha coupling constants have been measured and compared to the reference peptide (i.e., IGE134 (SEQ ID NOS:155, 171)). Peptides are defined to be of similar structure to the reference peptide provided. chemical shifts, coupling constants, and NOEs are consistent with that structure.

[2] = target: T1, alpha subunit of the human FcεRI receptor (Homo sapiens, UniProt P12319); assay: cell-based 125I-IgE binding inhibition assay on CHO FcεRI+ cells
T1 construct: expressed in transfected cells; host or cells: Chinese hamster ovary (CHO FcεRI+) cells
T1 sequence (P12319 26-257): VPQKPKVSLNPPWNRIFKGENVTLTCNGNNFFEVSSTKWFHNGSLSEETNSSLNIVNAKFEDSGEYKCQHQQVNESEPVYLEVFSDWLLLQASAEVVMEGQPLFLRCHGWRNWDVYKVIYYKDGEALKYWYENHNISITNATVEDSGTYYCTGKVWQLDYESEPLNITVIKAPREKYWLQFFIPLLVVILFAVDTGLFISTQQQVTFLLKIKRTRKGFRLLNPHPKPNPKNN
Method: . The following day the cells were rinsed three times with PBS and then once with F12/DMEM. Peptide stocks were reconstituted in 100 mM Hepes buffered water, pH 7.2, at a concentration of 5 mg/mL. Working concentrations of the peptide were diluted in assay buffer (see below). 75 ul, of a desired concentration of peptide was added to the top row of a separate 96 well microtiter plate and serially diluted 1:3 in 50 uL of the assay buffer (F12/DMEM, 1% BSA, 0.05% NaN3 and […] Hepes pH 7.2). Starting concentrations ranged from 50-500 uM. Next, 50 uL of the diluted peptide was transferred to the 96 microtiter well plate containing a monolayer of CHO FcεRI+ cells. After a 1 hour incubation at room temperature, 50 uL of ^125I-IgE (1.5 nM) was added to each well and incubated for an additional 45-60 minutes at 4° C. followed by 5 washes with 200 uL of assay buffer. Cells were solubilized with 200 uL of 1 N NaOH and transferred to a 96 microtiter tube for counting in a gamma counter to determine counts bound. The data were plotted using KaleidaGraph 3.0 and fitted using 4-parameter fits. IC50 values were determined for each peptide.
Six peptides based on selected clones from library #516 were synthesized and assayed for the ability to inhibit the binding of ^125I-IgE to a Chinese hamster ovary cell line expressing the alpha subunit of the IgE high affinity receptor, FcεRI. The peptides were synthesized as nine residue monomers and oxidized to allow the formation of a disulfide bridge resulting in a cyclic peptide. The size of each peptide was confirmed by mass spectrometry.

Row | SMILES | Struct. Score [1] | further results
1 | CSCC[C@H](NC(=O)[C@@H]1CSSC[C@H](NC(=O)[C@H](CCCNC(=N)N)NC(=O)[C@@H]2CCCN2C(=O)[C@H](CC(C)C)NC(=O)[C@H](CC(N)=O)NC(C)=O)C(=O)N[C@@H]([C@@H](C)O)C(=O)N[C@@H](CCC(=O)O)C(=O)NCC(=O)N2CCC[C@H]2C(=O)N[C@@H](CCCCN)C(=O)NCC(=O)N[C@@H](Cc2c[nH]c3ccccc23)C(=O)N[C@@H](C(C)C)C(=O)N1)C(=O)N[C@@H](C)C(=O)N[C@@H](CC(=O)O)C(=O)N[C@@H](CC(=O)O)C(N)=O [IGE032, Ac-NLPRCTEGPKGWVCMADD-nh2] (Ac-NLPRCTEGPKGWVCMADD-NH2; disulfide 5-14) | +++ | 
2 | CSCC[C@H](NC(=O)[C@@H]1CSSC[C@H](NC(=O)[C@H](CCCNC(=N)N)NC(=O)[C@@H]2CCCN2C(=O)[C@H](CC(C)C)NC(=O)[C@@H](N)CC(N)=O)C(=O)N[C@@H]([C@@H](C)O)C(=O)N[C@@H](CCC(=O)O)C(=O)NCC(=O)N2CCC[C@@H]2C(=O)N[C@@H](Cc2c[nH]c3ccccc23)C(=O)NCC(=O)N[C@@H](Cc2c[nH]c3ccccc23)C(=O)N[C@@H](C(C)C)C(=O)N1)C(=O)O [IGE071, NLPRCTEGpWGWVCM] (H-NLPRCTEG[dP]WGWVCM-OH; disulfide 5-14; N-terminus and C-terminus assumed) | −/+ | 
3 | CSCC[C@H](NC(=O)[C@@H]1CSSC[C@H](NC(=O)[C@H](CCCNC(=N)N)NC(=O)[C@@H]2CCCN2C(=O)[C@H](CC(C)C)NC(=O)[C@@H](N)CC(N)=O)C(=O)N[C@@H]([C@@H](C)O)C(=O)N[C@@H](CCC(=O)O)C(=O)NCC(=O)N2CCC[C@H]2C(=O)N[C@@H](C)C(=O)NCC(=O)N[C@@H](Cc2c[nH]c3ccccc23)C(=O)N[C@@H](C(C)C)C(=O)N1)C(=O)O [IGE072, NLPRCTEGPAGWVCM] (H-NLPRCTEGPAGWVCM-OH; disulfide 5-14; N-terminus and C-terminus assumed) | +++ | 
4 | CSCC[C@H](NC(=O)[C@@H]1CSSC[C@H](NC(=O)[C@H](CCCNC(=N)N)NC(=O)[C@@H]2CCCN2C(=O)[C@H](CC(C)C)NC(=O)[C@@H](N)CC(N)=O)C(=O)N[C@@H]([C@@H](C)O)C(=O)N[C@@H](CCC(=O)O)C(=O)NCC(=O)N2CCC[C@H]2C(=O)N[C@@H](Cc2c[nH]c3ccccc23)C(=O)NCC(=O)N[C@@H](Cc2c[nH]c3ccccc23)C(=O)N[C@@H](Cc2ccc(O)cc2)C(=O)N1)C(=O)O [IGE077, NLPRCTEGPWGWYCM] (H-NLPRCTEGPWGWYCM-OH; disulfide 5-14; N-terminus and C-terminus assumed) | +++ | 
5 | CC(C)C[C@H](NC(=O)[C@@H](N)CC(N)=O)C(=O)N1CCC[C@H]1C(=O)N[C@@H](CCCNC(=N)N)C(=O)N[C@H]1CSSC[C@@H](C(N)=O)NC(=O)[C@H](C(C)C)NC(=O)[C@H](Cc2c[nH]c3ccccc23)NC(=O)CNC(=O)[C@H](Cc2c[nH]c3ccccc23)NC(=O)[C@@H]2CCCN2C(=O)CNC(=O)[C@H](CCC(=O)O)NC(=O)[C@H]([C@@H](C)O)NC1=O [IGE091, NLPRCTEGPWGWVC-nh2] (H-NLPRCTEGPWGWVC-NH2; disulfide 5-14) | +++ | 
6 | CSCC[C@H](NC(=O)[C@@H]1CSSC[C@H](NC(=O)[C@H](CCCNC(=N)N)NC(=O)[C@@H]2CCCN2C(=O)[C@H](CC(C)C)NC(=O)[C@H](CC(N)=O)NC(C)=O)C(=O)N[C@@H]([C@@H](C)O)C(=O)N[C@@H](CCC(=O)O)C(=O)NCC(=O)N2CCC[C@H]2C(=O)N[C@@H](Cc2ccc3ccccc3c2)C(=O)NCC(=O)N[C@@H](Cc2c[nH]c3ccccc23)C(=O)N[C@@H](C(C)C)C(=O)N1)C(=O)O [IGE103, Ac-NLPRCTEGP(npA)GWVCM] (Ac-NLPRCTEGP[2Nal]GWVCM-OH; disulfide 5-14; C-terminus assumed) | +++ | 
7 | CC[C@H](C)[C@H](NC(=O)[C@@H]1CSSC[C@H](NC(=O)[C@H](CC(C)C)NC(=O)[C@@H](NC(=O)CNC(=O)[C@@H](N)CCSC)[C@@H](C)O)C(=O)N[C@@H](CC(C)C)C(=O)N[C@@H](CCC(=O)O)C(=O)NCC(=O)N2CCC[C@H]2C(=O)N[C@@H](CCC(=O)O)C(=O)NCC(=O)N[C@@H](Cc2c[nH]c3ccccc23)C(=O)N[C@@H](Cc2ccccc2)C(=O)N1)C(=O)N[C@@H](CCC(=O)O)C(=O)N[C@@H](CO)C(=O)N[C@@H](C)C(=O)O [MGTLCLEGPEGWFCIESA] (H-MGTLCLEGPEGWFCIESA-OH; disulfide 5-14) |  | pIC50 ([2]; IGE037: initially, read-out: IC50): < 3.80
8 | CSCC[C@H](NC(=O)[C@@H]1CSSC[C@H](NC(=O)[C@H](CCCNC(=N)N)NC(=O)[C@@H]2CCCN2C(=O)[C@H](CC(C)C)NC(=O)[C@@H](N)CC(N)=O)C(=O)N[C@@H]([C@@H](C)O)C(=O)N[C@@H](CCC(=O)O)C(=O)NCC(=O)N2CCC[C@H]2C(=O)N[C@@H](Cc2c[nH]c3ccccc23)C(=O)NCC(=O)N[C@@H](Cc2c[nH]c3ccccc23)C(=O)N[C@@H](C(C)C)C(=O)N1)C(=O)N[C@@H](C)C(=O)N[C@@H](C)C(=O)N[C@@H](CC(=O)O)C(=O)O [NLPRCTEGPWGWVCMAAD] (H-NLPRCTEGPWGWVCMAAD-OH; disulfide 5-14; N-terminus and C-terminus assumed) |  | fold improvement over the EIQECTEGPWGWFCVGSG peptide [2]: 40 fold; fold improvement over the MGTLCLEGPEGWFCIESA peptide [2]: greater than 160 fold

Now from value to molecule, other results behind:

Row | Struct. Score [1] | SMILES | further results
9 | +++ | CSCC[C@H](NC(=O)[C@@H]1CSSC[C@H](NC(=O)[C@H](CCCNC(=N)N)NC(=O)[C@@H]2CCCN2C(=O)[C@H](CC(C)C)NC(=O)[C@H](CC(N)=O)NC(C)=O)C(=O)N[C@@H]([C@@H](C)O)C(=O)N[C@@H](CCC(=O)O)C(=O)NCC(=O)N2CCCC[C@H]2C(=O)N[C@@H](Cc2c[nH]c3ccccc23)C(=O)NCC(=O)N[C@@H](Cc2c[nH]c3ccccc23)C(=O)N[C@@H](C(C)C)C(=O)N1)C(=O)O [IGE095, Ac-NLPRCTEG(Pip)WGWVCM] (Ac-NLPRCTEG[Pip]WGWVCM-OH; disulfide 5-14; C-terminus assumed) | 
10 | +++ | CSCC[C@H](NC(=O)[C@@H]1CSSC[C@H](NC(=O)[C@H](CCCNC(=N)N)NC(=O)[C@@H]2CCCN2C(=O)[C@H](CC(C)C)NC(=O)[C@H](CC(N)=O)NC(C)=O)C(=O)N[C@@H]([C@@H](C)O)C(=O)N[C@@H](CCC(=O)O)C(=O)NCC(=O)N(C)[C@@H](C)C(=O)N[C@@H](Cc2c[nH]c3ccccc23)C(=O)NCC(=O)N[C@@H](Cc2c[nH]c3ccccc23)C(=O)N[C@@H](C(C)C)C(=O)N1)C(=O)O [IGE096, Ac-NLPRCTEG(N-Me-A)WGWVCM] (Ac-NLPRCTEG[NMeA]WGWVCM-OH; disulfide 5-14; C-terminus assumed) | 
11 | −/+ | CSCC[C@H](NC(=O)[C@@H]1CSSC[C@H](NC(=O)[C@H](CCCNC(=N)N)NC(=O)[C@@H]2CCCN2C(=O)[C@H](CC(C)C)NC(=O)[C@H](CC(N)=O)NC(C)=O)C(=O)N[C@@H]([C@@H](C)O)C(=O)N[C@@H](CCC(=O)O)C(=O)NCC(=O)N(C)CC(=O)N[C@@H](Cc2c[nH]c3ccccc23)C(=O)NCC(=O)N[C@@H](Cc2c[nH]c3ccccc23)C(=O)N[C@@H](C(C)C)C(=O)N1)C(=O)O [IGE097, Ac-NLPRCTEG(N-Me-G)WGWVCM] (Ac-NLPRCTEG[Sar]WGWVCM-OH; disulfide 5-14; C-terminus assumed) | 
12 | − | CSCC[C@H](NC(=O)[C@H]1CSSC[C@H](NC(=O)[C@H](CCCNC(=N)N)NC(=O)[C@@H]2CCCN2C(=O)[C@H](CC(C)C)NC(=O)[C@H](CC(N)=O)NC(C)=O)C(=O)N[C@@H]([C@@H](C)O)C(=O)N[C@@H](CCC(=O)O)C(=O)NCC(=O)N2CCC[C@H]2C(=O)N[C@@H](Cc2c[nH]c3ccccc23)C(=O)NCC(=O)N[C@@H](Cc2c[nH]c3ccccc23)C(=O)N[C@@H](C(C)C)C(=O)N1)C(=O)O [IGE104, Ac-NLPRCTEGPWGWVcM] (Ac-NLPRCTEGPWGWV[dC]M-OH; disulfide 5-14; C-terminus assumed) | 
